Molecules are shown by their SMILES.

Results on one compound are retold here after patent US20220288091A1, “Method for Improving Insulin Sensitivity” (priority 2019, published 2022).

Assay type in all cases: in vivo, human
For data set [1], the system named is overweight or obese subjects with prediabetes or mild type 2 diabetes. The experiment in a line: 75-g oral glucose tolerance test (OGTT). Particulars: 50 mg every 6 hours for 9 days. As for the experimental part:
A randomized, placebo-controlled, double-blind crossover trial was conducted to evaluate the use of an anti-glucocorticoid as a means for ameliorating insulin resistance. Mifepristone, 50 mg, or a placebo, was administered every six hours for nine days to sixteen overweight or obese (BMI 25-37 kg/m^2) subjects (seven women). Participant ages ranged from 48 to 64 years. Ten had prediabetes and six had mild diabetes type II (HgbA1c less than 7%). Treatment of the glucose disorder with diet or a stable dose of metformin (used by two patients) was maintained for three (3) months before the study. The interventions were nine days of mifepristone or placebo treatment followed by a six (6) to eight (8) week wash out and cross over to the other arm. At baseline and at the end of each treatment period, parameters of insulin sensitivity were assessed by a frequently sampled intravenous glucose tolerance test (FSIVGTT) and an oral glucose tolerance test (OGTT). A whole body glucose disposal index of insulin sensitivity (SI) was derived using a minimal model analysis. Adipose tissue-SI, which reflects insulin-induced free fatty acid suppression, was estimated by the log-linear slope of free fatty acid levels and the AUC of insulin during the FSIVGTT. Matsuda index, oral glucose insulin sensitivity index (OGIS, ml/min/m^2), and hepatic insulin resistance index (HIRI, mg/dl×microU/ml×10^5) were derived from OGTT. Adipo-IR, a surrogate measure of adipocyte insulin resistance, was calculated by multiplying fasting concentrations of free fatty acids and insulin (mmol×pmol/L). Comparison of various post-treatment parameters was performed using crossover ANOVA. This analysis takes into account specific treatment arm, treatment order, and treatment effects. Thus, carryover effects were explicitly tested for in the crossover study.
On day 3 of baseline and post-treatment testing, subjects underwent a 75-gram OGTT. Serial blood draws for measurement of glucose, insulin and c-peptide were obtained at −5, 0, 30, 60, 90, 120, 150, and 180 minutes.
The Matsuda index and Oral Glucose Insulin Sensitivity Index (OGIS), surrogate indices of whole-body insulin sensitivity were derived from plasma glucose and insulin concentrations during the OGTT as previously described. Abdul-Ghani M A, et. al., Diabetes Care 2007; 30 (1): 89-94. HIRI was calculated as the product of the area under the curves of glucose and insulin for the first 30 minutes of the OGTT. Abdul-Ghani M A, ibid. The Adipo-IR index, a surrogate measure for fasting adipose adipose-tissue insulin resistance, was calculated as the product of fasting insulin and fasting FFA. Sondergaard E. et al., J. Clin. Endocrinol. Metab. 2017; 102(4):1193-9. A dynamic surrogate index of adipose tissue insulin sensitivity was assessed by calculating insulin's ability to suppress FFA levels during a FSIVGTT. Carpenter A. et al., Diabetes 2002; 51(6):1867-75 and Trottier A. et al. Fertil. Steril. […]; 98 (6):1627-34. The adipose tissue insulin sensitivity index was calculated as the ratio of the slope of the linear decrease in natural log transformed FFA [Ln (FFA) slope] during the first 90 minutes of the FSIVGTT and the AUC of insulin during that 90-minute period (AUCInsulin 0-90 min). Mathematical modeling of C-peptide concentrations was used to estimate insulin secretory rates and calculate β-cell responsivity parameters (basal (∅B); first-phase (∅1); second phase (∅2); and total (∅TOT) as previously described. Toffolo G. et al., Metabolism 1999; 48 (9):1162-6 and Cobelli C. et al. Am. J. Physiol. Endocrinol. Metab. 2007; 293 (1): E1-E5. Assuming an absence of hepatic C-peptide extraction, postprandial insulin clearance was calculated as the ratio of mean insulin secretion and insulin concentration. Trico D. et al. JCI Insight 2018; 3(24):e124912.

The nature of data set [2]: Body weight, blood pressure and serum lipids after 9-day administration. Particulars: 50 mg every 6 hours for 9 days; mean±SD, n=16. Here is the method:
(§1) To reduce potential variability associated with estrogen in premenopausal women, testing was performed in the early follicular phase (days 1-7 of menstrual cycle). Baseline height and weight were measured after an overnight fast. Subjects received an isocaloric regular diet during the inpatient part of the study, and those on metformin took the same dose throughout the study. Baseline testing took place took place over three inpatient days at the NIH Clinical Center, during which fasting blood was drawn, 24-hour urine was collected, 24-hour serial blood draws were obtained, and patients received both a […] (FSIVGTT) and a 75-g oral glucose tolerance test (OGTT). Subjects were then randomized to receive placebo or mifepristone for 9 days, of which the first 6 days the subjects returned home, and the final 3 days subjects underwent the same metabolic testing as during the baseline period. Subjects randomized to the mifepristone treatment arm were instructed to take one capsule (50 mg) every 6 hours (200 mg/day) over the course of 9 days. The placebo treatment arm received the same instructions to take one capsule every 6 hours over the course of the 9-day treatment period. Following the completion of the post-drug testing, subjects entered a 6-8 week washout period, after which they were crossed over to the other treatment arm, serving as their own controls for the study drug treatments.
Changes in body weight, BP and serum lipid concentrations for each study subject were evaluated at baseline and after 9-day administration of mifepristone or placebo, There were no significant differences observed in body weight or BMI between the treatment arms. BP was higher after mifepristone treatment for both systolic and diastolic values.

Data set [3] is described as follows: Plasma hormone levels (testosterone, androstenedione, DHEA sulfate). Particulars: 50 mg every 6 hours for 9 days, mean±SD. Here is the method: as §1

`CC#C[C@]1(O)CC[C@H]2[C@@H]3CCC4=CC(=O)CCC4=C3[C@@H](c3ccc(N(C)C)cc3)C[C@@]21C` [Mifepristone, 11beta-[p-(dimethylamino)phenyl]-17alpha-(1-propynl)estra-4,9-dien-17beta-ol-3-one]: in data set [1], the “Insulin clearance during OGTT vs placebo” value was “lower”. For the same compound, in data set [1] (3-hr OGTT), the “AUC for glucose during OGTT vs placebo” value is “not statistically significant” and the “AUC for insulin during OGTT, lower compared to placebo” value is “about 25%”. Also, the “Hepatic Insulin Resistance Index (HIRI)” value in data set [1] (AUC glucose × AUC insulin, first 30 min of OGTT, mean±SD, n=16) worked out at 50.2±38.7 mg/dl×microU/ml×10^5. In addition, in data set [1] (C-peptide modeling), the “Fasting insulin secretory rate (ISR) vs placebo” value is recorded as “significantly lower” and the “ISR during OGTT vs placebo” value is on record as “not different”. For the same compound, the “Static, dynamic and total β-cell responsivity indices vs placebo” value in data set [1] (derived from OGTT) is given as “similar”. Further, in data set [2], the “Body-Mass Index” value came to 32.2 ± 3.9 kg/m^2, the “Diastolic Blood Pressure” value stood at 77 ± 9.2 mmHg, the “HDL Cholesterol” value is given as 41.3 ± 11.9 mg/dL and the “LDL Cholesterol” value was determined as 97.1 ± 34.6 mg/dL. In data set [2], the “Systolic Blood Pressure” value is listed as 130 ± 13 mmHg, the “Total Cholesterol” value worked out at 163.6 ± 419 mg/dL and the Triglycerides was found to be 125.6 ± 65.6 mg/dL. For the same compound, in data set [3] (n=16), the Androstenedione came out at 110 ± 64.7 ng/dL and the “DHEA Sulfate” value was 1.04 ± 0.64 µg/mL. Moreover, the “Total testosterone (male)” value in data set [3] (male subjects) stood at 235.2 ± 87.5 ng/dL.
